US11478466B2, “Small molecule promoting osteoblast differentiation” (Cornell University, priority 2019, dated 2022)
pEC50: −log10 of the molar value. Where two headings read alike, the source gives them in different places.

Legend:
[1] = tested on: alkaline phosphatase (ALP); settings: for RFU Score Threshold ≥ 800: Ex 450/Em 580 nm, rank in brackets not taken; for Fluorescence Z Score Threshold ≥ 10: Z score on DMSO control wells; for RFU Score (10 μM): 154-analog library, C2C12, duplicate
[2] = tested on: alkaline phosphatase (ALP); assay: cells; settings: Mus musculus; for activation at 10 µM: C2C12, 96 h
[3] = primary screen, 10 μM, C2C12, 4 days
[4] = read-out: NPA Score Threshold ≥ 5.0 (normalized percent activation)

Row | Compound | RFU Score (10 μM) ([1]; 10 μM) | activation at 10 µM [2] [%] | further results
1 | CN(C)CC1(O)CCCN(S(=O)(=O)c2ccc(-c3ccccc3)cc2)CC1 (centres unmarked) [RU-0259574] |  |  | RFU Score Threshold ≥ 800 [1, 3]: 903 (16); Fluorescence Z Score Threshold ≥ 10 [1, 3]: Below Threshold; activation at 10 µM [2, 4]: 9.87%
2 | CC(=O)Nc1ccc2nc(-c3[nH]cnc3-c3ccccc3)ccc2c1 [RU-0260066] | 456 | 6.14 | 
3 | O=C(c1[nH]cnc1-c1ccccc1)N1CCOC(c2ccc(Cl)cc2)C1 (centres unmarked) [RU-0261164] | 544 | 9.24 | 
4 | c1ccc2c(N3CCN(Cc4cc5n(n4)CCCNC5)CC3)nsc2c1 [RU-0261349] |  |  | RFU Score Threshold ≥ 800 [1, 3]: 884 (18); Fluorescence Z Score Threshold ≥ 10 [1, 3]: 11.32 (22); activation at 10 µM [2, 4]: 5.04%
5 | CCC(c1cccnc1)N(C)Cc1cc2cc(C)cc(C)c2[nH]c1=O (centres unmarked) [RU-0261450] | 538 | 9.03 | 
6 | O=C(N[C@H]1CC[C@H](n2cnnc2)CC1)c1[nH]cnc1-c1ccccc1 [RU-0261757] | 508 | 7.99 | 
7 | COc1ccc(-c2[nH]nnc2-c2ccccc2)cc1Cn1cncn1 [RU-0262240] | 496 | 7.55 | 
8 | CN1CCC(Cc2noc(CCC(=O)c3ccccc3)n2)CC1 [RU-0262489] |  |  | RFU Score Threshold ≥ 800 [1, 3]: Below Threshold; Fluorescence Z Score Threshold ≥ 10 [1, 3]: Below Threshold; activation at 10 µM [2, 4]: 5.43%
9 | O=C1NCC2(CCCN(C(=O)c3[nH]cnc3-c3ccccc3)C2)O1 (centres unmarked) [RU-0264094] | 583 | 10.6 | 
10 | COc1cccc(-c2[nH]cnc2-c2ccccc2)c1OCCn1ccnc1 [RU-0265092] | 478 | 6.93 | 
11 | Cc1cc(C)c2[nH]c(=O)c(-c3c(-c4ccccc4)ncn3C3CCNC3)cc2c1 (centres unmarked) [RU-0266582] |  |  | Fluo. Z Score ([1]; SAR of library and proprietary analogs, AttoPhos assay, C2C12): 0.48 ± 1.10; pEC50 ([2]; C2C12): 5.85
12 | Cc1cc(C)c2[nH]c(=O)c(CN3CCOC4(CNCCOC4)C3)cc2c1 (centres unmarked) [RU-0267267] | 557 | 9.71 | 
13 | C=CCN(Cc1ccc(F)cc1)C(=O)c1c[nH]c2c(C)cccc2c1=O [RU-0268068] |  |  | RFU Score Threshold ≥ 800 [1, 3]: Below Threshold; Fluorescence Z Score Threshold ≥ 10 [1, 3]: Below Threshold; activation at 10 µM [2, 4]: 5.81%
14 | O=C(c1[nH]cnc1-c1ccccc1)N1C[C@H](O)[C@@H](N2CCOCC2)C1 [RU-0268325] | 339 | 2.04 | 
15 | CCOC(=O)N1CCC(Nc2ncnc3ccsc23)CC1 [RU-0269711, ethyl 4-(thieno[2,3-e]pyrimidin-4-ylamino)piperidine-1-carboxylate] |  |  | RFU Score Threshold ≥ 800 [1, 3]: 1070 (7); Fluorescence Z Score Threshold ≥ 10 [1, 3]: 14.73 (15); NPA Score Threshold ≥ 5.0 (normalized percent activation) ([1]; primary screen, 10 μM, C2C12, 4 days, normalized against rhBMP4 positive and DMSO negative controls): Below Threshold; pEC50 ([2]; C2C12, read-out: Measured EC50): 4.55
16 | CN(C)CC1(O)CCCN(C(=O)c2[nH]cnc2-c2ccccc2)C1 (centres unmarked) [RU-0424441] | 368 | 3.04 | 
17 | CN1CCN(C(=O)c2[nH]cnc2-c2ccccc2)CC1C(=O)O (centres unmarked) [RU-0424442] | 287 | 0.18 | 
18 | CCOc1cccc(-c2[nH]cnc2-c2ccccc2)c1OCC(=O)O [RU-0424443] | 306 | 0.87 | 
19 | Cc1cc(C)c2[nH]c(=O)c(CN(C)CCc3scnc3C)cc2c1 [RU-0424444] | 446 | 5.79 | 
20 | Cc1ccc2[nH]c(C(=O)O)c(-c3[nH]cnc3-c3ccccc3)c2c1 [RU-0424445] | 364 | 4.67 | 
21 | O=C(c1[nH]cnc1-c1ccccc1)N1CCc2onc(-c3ccccc3)c2C1 [RU-0424446] | 325 | 1.54 | 
22 | Cc1cc(C)c2[nH]c(=O)c(CN(C)Cc3nc(-c4cccnc4)no3)cc2c1 [RU-0424447] | 297 | 0.54 | 
23 | Cc1cc(C)c2[nH]c(=O)c(CN3C[C@@H](C)O[C@@H](C)C3)cc2c1 [RU-0424448] | 253 | -1 | 
24 | Cc1cc(C)c2[nH]c(=O)c(CN3CCC(c4nncn4C)CC3)cc2c1 [RU-0424449] | 284 | 0.1 | 
25 | Cc1nn(C)c(N2CCOCC2)c1-c1[nH]cnc1-c1ccccc1 [RU-0424450] | 288 | 0.24 | 
26 | Cc1cc(C)c2[nH]c(=O)c(CN(Cc3nccn3C)C3CC3)cc2c1 [RU-0424451] | 305 | 0.82 | 

Row | Compound | RFU Score (10 μM) ([1]; 10 μM) | activation at 10 µM [2] [%] | further results
27 | Cc1cc(C)c2[nH]c(=O)c(CN3CCC(CN)C3)cc2c1 (centres unmarked) [RU-0424452] | 328 | 1.65 | 
28 | O=C(c1[nH]cnc1-c1ccccc1)N1CC(c2cccnc2)C1 [RU-0424453] | 323 | 1.46 | 
29 | O=C(c1[nH]cnc1-c1ccccc1)N1CCN2C(=O)OCC2C1 (centres unmarked) [RU-0424454] | 333 | 1.83 | 
30 | O=C(c1[nH]cnc1-c1ccccc1)N1CCc2[nH]nc(-c3ccccc3)c2C1 [RU-0424455] | 347 | 2.3 | 
31 | Cc1cc(C)c2[nH]c(=O)c(CN3CCC(Oc4ncccn4)CC3)cc2c1 [RU-0424456] | 310 | 0.99 | 
32 | Cc1cc(C)c2[nH]c(=O)c(CN3CCCC(CS(C)(=O)=O)C3)cc2c1 (centres unmarked) [RU-0424457] | 285 | 0.13 | 
33 | Cc1cc(C)c2[nH]c(=O)c(CN3CCCC(N4CCCC4=O)C3)cc2c1 (centres unmarked) [RU-0424458] | 306 | 0.87 | 
34 | Cc1cc(C)c2[nH]c(=O)c(CN(C)Cc3noc(C4CC4)n3)cc2c1 [RU-0424459] | 383 | 3.58 | 
35 | O=C(c1[nH]cnc1-c1ccccc1)N1CCC(O)(CO)CC1 [RU-0424460] | 429 | 5.19 | 
36 | Cc1cc(C)c2[nH]c(=O)c(-c3nccn3[C@@H]3CS(=O)(=O)C[C@H]3O)cc2c1 [RU-0424461] | 399 | 4.15 | 
37 | Cc1cc(C)c2[nH]c(=O)c(C3CC(=O)NCc4nc5ccccn5c43)cc2c1 (centres unmarked) [RU-0424462] | 503 | 7.81 | 
38 | CC1(C2CCN(C(=O)c3[nH]cnc3-c3ccccc3)CC2)NC(=O)NC1=O (centres unmarked) [RU-0424463] | 422 | 4.96 | 
39 | CCCN(Cc1nccn1C)C(=O)c1[nH]cnc1-c1ccccc1 [RU-0424464] | 330 | 1.72 | 
40 | Cc1cc(C)c2[nH]c(=O)c(-c3nccn3Cc3ccccn3)cc2c1 [RU-0424465] | 427 | 5.14 | 
41 | Cn1cnnc1Sc1ccc(-c2[nH]cnc2-c2ccccc2)o1 [RU-0424466] | 527 | 8.64 | 
42 | CO[C@H]1CN(C(=O)c2[nH]cnc2-c2ccccc2)CC[C@H]1N [RU-0424467] | 508 | 7.99 | 
43 | COc1ncccc1-n1ccnc1-c1cc2cc(C)cc(C)c2[nH]c1=O [RU-0424468] | 508 | 7.97 | 
44 | Cc1cc(C)c2[nH]c(=O)c(CN(C)Cc3cc(-c4cccnc4)no3)cc2c1 [RU-0424469] | 536 | 8.96 | 
45 | O=C1OCC2(CCN(C(=O)c3[nH]cnc3-c3ccccc3)CC2)O1 [RU-0424470] | 497 | 7.58 | 
46 | Cc1cc(C)c2[nH]c(=O)c(CN3CCCC4(C3)CN(C)C(=O)O4)cc2c1 (centres unmarked) [RU-0424471] | 524 | 8.55 | 
47 | COc1ccccc1N1CCN(C(=O)c2[nH]cnc2-c2ccccc2)CC1=O [RU-0424472] | 397 | 4.08 | 
48 | CCNC(=O)[C@@H]1CCCN1Cc1cc2cc(C)cc(C)c2[nH]c1=O [RU-0424473] | 470 | 6.63 | 
49 | Cc1cc(C)c2[nH]c(=O)c(C3c4nc[nH]c4CCN3Cc3ccco3)cc2c1 (centres unmarked) [RU-0424474] | 566 | 10 | 
50 | O=C(Nc1cnc2n1CCCC2)c1[nH]cnc1-c1ccccc1 [RU-0424475] | 491 | 6.39 | 
51 | Cc1cc(C)c2[nH]c(=O)c(CN3C[C@H]4CC[C@@H](C3)N(C)C4=O)cc2c1 [RU-0424476] | 520 | 8.41 | 
52 | CN(C)C1CCN(C(=O)c2cccc(-c3[nH]cnc3-c3ccccc3)c2)C1 (centres unmarked) [RU-0424477] | 469 | 6.59 | 
